Measured values as given in ChEMBL document CHEMBL4340571, “Investigation of flexibility of neuraminidase 150-loop using tamiflu derivatives in influenza A viruses H1N1 and H5N1” (Bioorg Med Chem, 2019).

Assay: Inhibition of Influenza A virus (A/California/07/2009(H1N1)) Neuraminidase N1 at pH 7.4 by DIANA assay

SMILES	Ki
CCC(CC)O[C@H]1CC(C(=O)O)=C[C@@H](n2cc(CN3CCS(=O)(=O)CC3)nn2)[C@@H]1NC(C)=O	340 µM
CCC(CC)O[C@@H]1C=C(C(=O)O)C[C@H](n2cc(CNc3ccccc3)nn2)[C@H]1NC(C)=O	19 µM
CCC(CC)O[C@@H]1C=C(C(=O)O)C[C@H](n2cc(CNc3ccc(NC(C)=O)cc3)nn2)[C@H]1NC(C)=O	9.1 µM
CCC(CC)O[C@@H]1C=C(C(=O)O)C[C@H](n2cc(C[C@H](N)C(=O)O)nn2)[C@H]1NC(C)=O	64 µM
CCC(CC)O[C@@H]1C=C(C(=O)O)C[C@H](NCc2cn(CCN3CCS(=O)(=O)CC3)nn2)[C@H]1NC(C)=O	12 µM
CCC(CC)O[C@@H]1C=C(C(=O)O)C[C@H](n2cc(CNc3ccccc3C(N)=O)nn2)[C@H]1NC(C)=O	13 µM
CCC(CC)O[C@@H]1C=C(C(=O)O)C[C@H](n2cc(CN(C)c3ccc(OC)cc3)nn2)[C@H]1NC(C)=O	19 µM
CCOC(=O)C1=C[C@@H](OC(CC)CC)[C@H](NC(C)=O)[C@@H](N)C1 [OSELTAMIVIR PHOSPHATE]	2 µM
CCC(CC)O[C@@H]1C=C(C(=O)O)C[C@H](n2cc(CNc3cc(F)ccc3OC)nn2)[C@H]1NC(C)=O	22 µM
CCC(CC)O[C@@H]1C=C(C(=O)O)C[C@H](n2cc(CNc3cccc(C(F)(F)F)c3)nn2)[C@H]1NC(C)=O	4.2 µM
CCC(CC)O[C@@H]1C=C(C(=O)O)C[C@H](NCc2cn(CC(=O)NC)nn2)[C@H]1NC(C)=O	1.2 µM
CCC(CC)O[C@@H]1C=C(C(=O)O)C[C@H](NCc2cn(CC(=O)N(C)C)nn2)[C@H]1NC(C)=O	5.9 µM
CCC(CC)O[C@@H]1C=C(C(=O)O)C[C@H](n2cc(CNc3ccc(C(N)=O)c(C(F)(F)F)c3)nn2)[C@H]1NC(C)=O	14 µM
CCC(CC)O[C@@H]1C=C(C(=O)O)C[C@H](n2cc(CO)nn2)[C@H]1NC(C)=O	12 µM
CCC(CC)O[C@@H]1C=C(C(=O)O)C[C@H](n2cc(C[C@@]3(C(=O)O)CCCN3)nn2)[C@H]1NC(C)=O	98 µM
CCC(CC)O[C@@H]1C=C(C(=O)O)C[C@H](n2cc(-c3cccs3)nn2)[C@H]1NC(C)=O	20 µM
CCC(CC)O[C@@H]1C=C(C(=O)O)C[C@H](n2cc(COCC(C)(CO)CO)nn2)[C@H]1NC(C)=O	180 µM
CCC(CC)O[C@@H]1C=C(C(=O)O)C[C@H](n2cc(-c3ccsc3)nn2)[C@H]1NC(C)=O	16 µM
CCC(CC)O[C@@H]1C=C(C(=O)O)C[C@H](NCc2cn(CC(=O)O)nn2)[C@H]1NC(C)=O	2.8 µM
CCC(CC)O[C@@H]1C=C(C(=O)O)C[C@H](NCc2cn(CC(C)(CO)CO)nn2)[C@H]1NC(C)=O	0.89 µM
CCC(CC)O[C@@H]1C=C(C(=O)O)C[C@H](NCc2cn(CCO)nn2)[C@H]1NC(C)=O	0.75 µM
CCC(CC)O[C@@H]1C=C(C(=O)O)C[C@H](N)[C@H]1NC(C)=O [OSELTAMIVIR CARBOXYLATE]	0.031 µM

Assay: Selectivity index, ratio of Ki for inhibition of Influenza A virus (A/California/07/2009(H1N1)) Neuraminidase N1 by DIANA assay to Ki for inhibition of influenza A virus chicken/Nakorn- Patom/Thailand/CU-K2-2004 Neuraminidase N1 by DIANA assay

SMILES	Ratio Ki
CCC(CC)O[C@H]1CC(C(=O)O)=C[C@@H](n2cc(CN3CCS(=O)(=O)CC3)nn2)[C@@H]1NC(C)=O	2 to 4
CCC(CC)O[C@@H]1C=C(C(=O)O)C[C@H](n2cc(CNc3ccccc3)nn2)[C@H]1NC(C)=O	2 to 4
CCC(CC)O[C@@H]1C=C(C(=O)O)C[C@H](n2cc(CNc3ccc(NC(C)=O)cc3)nn2)[C@H]1NC(C)=O	2 to 4
CCC(CC)O[C@@H]1C=C(C(=O)O)C[C@H](n2cc(C[C@H](N)C(=O)O)nn2)[C@H]1NC(C)=O	2 to 4
CCC(CC)O[C@@H]1C=C(C(=O)O)C[C@H](n2cc(CNc3ccccc3C(N)=O)nn2)[C@H]1NC(C)=O	2 to 4
CCC(CC)O[C@@H]1C=C(C(=O)O)C[C@H](n2cc(CN(C)c3ccc(OC)cc3)nn2)[C@H]1NC(C)=O	2 to 4
CCC(CC)O[C@@H]1C=C(C(=O)O)C[C@H](n2cc(CNc3cc(F)ccc3OC)nn2)[C@H]1NC(C)=O	2 to 4
CCC(CC)O[C@@H]1C=C(C(=O)O)C[C@H](n2cc(CNc3cccc(C(F)(F)F)c3)nn2)[C@H]1NC(C)=O	2 to 4
CCC(CC)O[C@@H]1C=C(C(=O)O)C[C@H](n2cc(CNc3ccc(C(N)=O)c(C(F)(F)F)c3)nn2)[C@H]1NC(C)=O	2 to 4
CCC(CC)O[C@@H]1C=C(C(=O)O)C[C@H](n2cc(CO)nn2)[C@H]1NC(C)=O	2 to 4
CCC(CC)O[C@@H]1C=C(C(=O)O)C[C@H](n2cc(C[C@@]3(C(=O)O)CCCN3)nn2)[C@H]1NC(C)=O	2 to 4
CCC(CC)O[C@@H]1C=C(C(=O)O)C[C@H](n2cc(-c3cccs3)nn2)[C@H]1NC(C)=O	2 to 4
CCC(CC)O[C@@H]1C=C(C(=O)O)C[C@H](n2cc(COCC(C)(CO)CO)nn2)[C@H]1NC(C)=O	2 to 4
CCC(CC)O[C@@H]1C=C(C(=O)O)C[C@H](n2cc(-c3ccsc3)nn2)[C@H]1NC(C)=O	2 to 4

Assay: Inhibition of Influenza A virus (A/California/07/2009(H1N1)) Neuraminidase N1 at pH 6.15 using 4-MUNANA substrate incubated for 20 mins by fluorometric assay

SMILES	Ki
CCC(CC)O[C@@H]1C=C(C(=O)O)C[C@H](n2cc(CNc3cccc(C(F)(F)F)c3)nn2)[C@H]1NC(C)=O	0.47 µM
CCC(CC)O[C@@H]1C=C(C(=O)O)C[C@H](NCc2cn(CC(=O)NC)nn2)[C@H]1NC(C)=O	0.87 µM
CCC(CC)O[C@@H]1C=C(C(=O)O)C[C@H](N=[N+]=[N-])[C@H]1NC(C)=O	0.91 µM
CCC(CC)O[C@@H]1C=C(C(=O)O)C[C@H](n2cc(CO)nn2)[C@H]1NC(C)=O	0.47 µM
CCC(CC)O[C@@H]1C=C(C(=O)O)C[C@H](NCc2cn(CCO)nn2)[C@H]1NC(C)=O	0.65 µM
CCC(CC)O[C@@H]1C=C(C(=O)O)C[C@H](N)[C@H]1NC(C)=O [OSELTAMIVIR CARBOXYLATE]	0.024 µM
